# Source: ChEMBL document CHEMBL1255495, “Experimental conditions that enhance potency of an antibacterial oligo-acyl-lysyl” (2010)
# What was measured:
# Type in all cases: functional
# Escherichia coli [1] = test: Antibacterial activity against Escherichia coli O157:H7 ATCC 43894 after 24 hrs at 37 degC by microdilution method; conditions: O157:H7 ATCC 43894, 24 h
# Escherichia coli [2] = test: Antibacterial activity against Escherichia coli O157:H7 ATCC 43894 after 24 hrs at 48 degC by microdilution method; conditions: O157:H7 ATCC 43894, 24 h
# Listeria monocytogenes [3] = test: Antibacterial activity against Listeria monocytogenes ATCC 19115 at pH 3.5 after 24 hrs by microdilution method; conditions: ATCC 19115, 24 h
# Listeria monocytogenes [4] = test: Antibacterial activity against Listeria monocytogenes ATCC 19115 at pH 5.5 after 24 hrs by microdilution method; conditions: ATCC 19115, 24 h
# Listeria monocytogenes [5] = test: Antibacterial activity against Listeria monocytogenes ATCC 19115 at pH 7 after 24 hrs by microdilution method; conditions: ATCC 19115, 24 h
# Listeria monocytogenes [6] = test: Antibacterial activity against Listeria monocytogenes ATCC 19115 at pH 8.5 after 24 hrs by microdilution method; conditions: ATCC 19115, 24 h
# Listeria monocytogenes [7] = test: Antibacterial activity against Listeria monocytogenes ATCC 19115 after 24 hrs by microdilution method in presence of 85 mM NaCl; conditions: ATCC 19115, 24 h
# Listeria monocytogenes [8] = test: Antibacterial activity against Listeria monocytogenes ATCC 19115 after 24 hrs by microdilution method in presence of 170 mM NaCl; conditions: ATCC 19115, 24 h
# Listeria monocytogenes [9] = test: Antibacterial activity against Listeria monocytogenes ATCC 19115 after 24 hrs by microdilution method in presence of 260 mM NaCl; conditions: ATCC 19115, 24 h
# Listeria monocytogenes [10] = test: Antibacterial activity against Listeria monocytogenes ATCC 19115 after 24 hrs by microdilution method in presence of 515 mM NaCl; conditions: ATCC 19115, 24 h
# Listeria monocytogenes [11] = test: Antibacterial activity against Listeria monocytogenes ATCC 19115 after 24 hrs by microdilution method in presence of 1030 mM NaCl; conditions: ATCC 19115, 24 h
# Listeria monocytogenes [12] = test: Antibacterial activity against Listeria monocytogenes ATCC 19115 after 24 hrs by microdilution method in presence of 20 mM MgCl2; conditions: ATCC 19115, 24 h
# Listeria monocytogenes [13] = test: Antibacterial activity against Listeria monocytogenes ATCC 19115 after 24 hrs by microdilution method in presence of 40 mM MgCl2; conditions: ATCC 19115, 24 h
# Listeria monocytogenes [14] = test: Antibacterial activity against Listeria monocytogenes ATCC 19115 after 24 hrs by microdilution method in presence of 80 mM MgCl2; conditions: ATCC 19115, 24 h
# Listeria monocytogenes [15] = test: Antibacterial activity against Listeria monocytogenes ATCC 19115 after 24 hrs by microdilution method in presence of 160 mM MgCl2; conditions: ATCC 19115, 24 h
# Listeria monocytogenes [16] = test: Antibacterial activity against Listeria monocytogenes ATCC 19115 after 72 hrs at 4 degC by microdilution method; conditions: ATCC 19115, 72 h
# Listeria monocytogenes [17] = test: Antibacterial activity against Listeria monocytogenes ATCC 19115 after 24 hrs at 25 degC by microdilution method; conditions: ATCC 19115, 24 h
# Listeria monocytogenes [18] = test: Antibacterial activity against Listeria monocytogenes ATCC 19115 after 24 hrs at 37 degC by microdilution method; conditions: ATCC 19115, 24 h
# Listeria monocytogenes [19] = test: Antibacterial activity against Listeria monocytogenes ATCC 19115 after 24 hrs at 48 degC by microdilution method; conditions: ATCC 19115, 24 h
# Staphylococcus aureus [20] = test: Antibacterial activity against methicillin-resistant Staphylococcus aureus isolate 15903 at pH 5.5 after 24 hrs by microdilution method; conditions: isolate 15903, 24 h
# Staphylococcus aureus [21] = test: Antibacterial activity against methicillin-resistant Staphylococcus aureus isolate 15903 at pH 7 after 24 hrs by microdilution method; conditions: isolate 15903, 24 h
# Staphylococcus aureus [22] = test: Antibacterial activity against methicillin-resistant Staphylococcus aureus isolate 15903 at pH 8.5 after 24 hrs by microdilution method; conditions: isolate 15903, 24 h
# Staphylococcus aureus [23] = test: Antibacterial activity against methicillin-resistant Staphylococcus aureus isolate 15903 after 24 hrs by microdilution method in presence of 85 mM NaCl; conditions: isolate 15903, 24 h
# Staphylococcus aureus [24] = test: Antibacterial activity against methicillin-resistant Staphylococcus aureus isolate 15903 after 24 hrs by microdilution method in presence of 170 mM NaCl; conditions: isolate 15903, 24 h
# Staphylococcus aureus [25] = test: Antibacterial activity against methicillin-resistant Staphylococcus aureus isolate 15903 after 24 hrs by microdilution method in presence of 260 mM NaCl; conditions: isolate 15903, 24 h
# Staphylococcus aureus [26] = test: Antibacterial activity against methicillin-resistant Staphylococcus aureus isolate 15903 after 24 hrs by microdilution method in presence of 515 mM NaCl; conditions: isolate 15903, 24 h
# Staphylococcus aureus [27] = test: Antibacterial activity against methicillin-resistant Staphylococcus aureus isolate 15903 after 24 hrs by microdilution method in presence of 1030 mM NaCl; conditions: isolate 15903, 24 h
# Escherichia coli [28] = test: Ratio of MIC for Escherichia coli O157:H7 ATCC 43894 in presence of 85 mM NaClsto MIC for Escherichia coli O157:H7 ATCC 43894 at pH 8.5 after 24 hrs at 48 degC in presence of 85 mM NaCl
# Staphylococcus aureus [29] = test: Antibacterial activity against methicillin-resistant Staphylococcus aureus isolate 15903 after 24 hrs at 37 degC by microdilution method; conditions: isolate 15903, 24 h
smiles,measurement,setting,value
CCCCCCCCCCCC(=O)N[C@@H](CCCCN)C(=O)NCCCCCCCC(=O)N[C@@H](CCCCN)C(=O)NCCCCCCCC(=O)N[C@@H](CCCCN)C(=O)NCCCCCCCC(=O)N[C@@H](CCCCN)C(=O)NCCCCCCCC(=O)N[C@@H](CCCCN)C(=O)NCCCCCCCC(=O)N[C@@H](CCCCN)C(=O)NCCCCCCCC(=O)N[C@@H](CCCCN)C(=O)NCCCCCCCC(=O)N[C@@H](CCCCN)C(N)=O,MIC,Escherichia coli [1],3.1 µM
same,MIC,Escherichia coli [2],1.6 µM
same,MIC,Listeria monocytogenes [3],> 50 µM
same,MIC,Listeria monocytogenes [4],3.1 µM
same,MIC,Listeria monocytogenes [5],1.6 µM
same,MIC,Listeria monocytogenes [6],0.8 µM
same,MIC,Listeria monocytogenes [7],1.6 µM
same,MIC,Listeria monocytogenes [8],3.1 µM
same,MIC,Listeria monocytogenes [9],3.1 µM
same,MIC,Listeria monocytogenes [10],6.3 µM
same,MIC,Listeria monocytogenes [11],12.5 µM
same,MIC,Listeria monocytogenes [12],3.1 µM
same,MIC,Listeria monocytogenes [13],6.3 µM
same,MIC,Listeria monocytogenes [14],12.5 µM
same,MIC,Listeria monocytogenes [15],25 µM
same,MIC,Listeria monocytogenes [16],3.1 µM
same,MIC,Listeria monocytogenes [17],3.1 µM
same,MIC,Listeria monocytogenes [18],1.6 µM
same,MIC,Listeria monocytogenes [19],1.6 µM
same,MIC,Staphylococcus aureus [20],> 50 µM
same,MIC,Staphylococcus aureus [21],12.5 µM
same,MIC,Staphylococcus aureus [22],1.6 µM
same,MIC,Staphylococcus aureus [23],12.5 µM
same,MIC,Staphylococcus aureus [24],50 µM
same,MIC,Staphylococcus aureus [25],> 50 µM
same,MIC,Staphylococcus aureus [26],> 50 µM
same,MIC,Staphylococcus aureus [27],> 50 µM
same,Ratio,Escherichia coli [28],16
same,MIC,Staphylococcus aureus [29],12.5 µM
